For the assay, the target named is T1, ACC (acetyl CoA carboxylase) purified from liver of male SD rat (Rattus norvegicus, UniProt P11497).
T1 construct: applied to a monomeric avidin sepharose column, and washed with buffer B. The ACC was eluted with buffer B containing 2 mM d-biotin; from tissue; host or cells: liver of male SD rat
As to the kind of experiment: Measurement of ACC inhibition activity ([14C]-NaHCO3 incorporation). In kind it is biochemical. The conditions noted are these: ACC inhibition activity rate at 1 μM, read-out: ACC Inhibition (%). As for the experimental part: A male SD rat was deprived of food for two days and then fed a high-sucrose diet (component) for two days. While anesthetized with ether, the descending vena cava was cut upon, the animal was bled, and the liver was rapidly recovered. In an ice-cooled buffer solution A (225 mM mannitol, 75 mM sucrose, 10 mM Tris-HCl (pH 7.5), 0.05 mM EDTA, 5 mM potassium citrate, 2.5 mM MgCl2, 10 mg/L pepstatin A, 10 mg/L leupeptin, 1 mM PMSF), the liver was homogenized with a polytone homogenizer. A quantity of buffer A nine times the weight of the liver was added, the mixture was centrifuged for 10 minutes at 1,000 g, the supernatant was recovered, and the supernatant was centrifuged for another 10 minutes at 17,000 g.
Ammonium sulfate was added to 35 percent saturation to the obtained supernatant. The mixture was stirred for 45 minutes and then centrifuged for 10 minutes at 17,000 g. Buffer solution B (100 mM Tris-HCl (pH 7.5), 500 mM NaCl, 1 mM EDTA, 0.1 mM DTT, 10 percent glycerol, 10 mg/L pepstatin A, 10 mg/L leupeptin, 0.5 mM PMSF) was added to the obtained precipitate and dissolved. The solution was then centrifuged for 20 minutes at 40,000 g. The supernatant was dialyzed overnight against buffer C (100 mM Tris-HCl (pH 7.5), 500 mM NaCl, 1 mM EDTA, 0.1 mM DTT, 5 percent glycerol).
The dialyzed supernatant was passed through a […], applied to a monomeric avidin sepharose column, and washed with buffer B. The ACC was eluted with buffer B containing 2 mM d-biotin.
(2 Measurement of ACC Inhibition Activity)
The compounds synthesized in the above-described embodiments were dissolved in DMSO and charged to glass vials. 250 μL of ACC-containing reaction solution (40 mM Tris-HCl (pH 7.5), 40 mM MgCl2, 40 mM sodium citrate, and 2 mM DTT) was added. The mixture was heated for 30 minutes at 37° C. in a thermostatic chamber and then cooled with ice. To reaction solution 1 was added 250 μL of reaction solution 2 containing [14C]—NaHCO3 (40 mM Tris-HCl (pH 7.5), 2 mM DTT, 8 mM ATP, 0.5 mM acetyl CoA) and the mixture was heated for 10 minutes at 37° C. 100 μL of 1N HCl was added to stop the reaction. Water in the reaction solution was removed with a centrifugal evaporator, a scintillator was added, the solid component was dissolved, and the 14C radioactivity was measured with a liquid scintillation counter. The ACC inhibition activity of each compound was calculated from the following equation and converted to the ACC inhibition activity rate (%) at 1 μM.
ACC inhibition rate (%)=(1−(a−c)/(b−c))×100 a. Radioactivity when test drug added b: Radioactivity when test drug not added c: Blank* *Reaction solution 1 to which 100 μL of 1N HCl was added before mixing reaction solution 1 and reaction solution 2

Where [1] appears, read: Table 4-IV, Mode 4 benzenediamine compounds (numbers = x-IV).
[2] abbreviates: Table 2-III, Mode 3 acetylene/oxadiazole/thiazole compounds (numbers = x-III).
[3] abbreviates: Table 4-A, further compounds of Modes 2 and 3.
Where [4] appears, read: Table 3-I, Mode 1 quinoline compounds (numbers = x-I).

Where two headings read alike, the source gives them in different places.

43 molecules from patent publication US7402696B2, “Benzene compounds” (Ajinomoto Co., Inc., priority 2004, dated 2008) can be followed below.

Broadly, the inhibition is the drop in the measured response relative to a control, in per cent.

Turning to `CC(C)CCN(C)c1ccc(C(=O)NC(CC(=O)NS(=O)(=O)c2ccccc2)C2CCCCC2)cc1NC(C)C` (stereo not shown) [compound 84], the inhibition at 1 µM under setting [1] turned out to be 52%.
`CC(C)CCN(C)c1ccc(C(=O)NC(CC(=O)NS(=O)(=O)c2cn(C)cn2)C2CCCCC2)cc1N(C)Cc1ccccc1` (stereo not shown) [Compound 148-IV]: under setting [1], the inhibition at 1 µM was determined as 63%.
With `CC(C)c1ccc(S(=O)(=O)NC(=O)c2ccc(-c3nc(-c4ccc(-c5csc(-c6ccc(C(F)(F)F)cc6)n5)cc4)no3)cc2)cc1` [compound 107], the inhibition at 1 µM under setting [2] came out at 100%.
On the same count and under the same terms, then `O=[N+]([O-])c1ccccc1S(=O)(=O)Nc1ccc(-c2csc(-c3ccccc3)n2)cc1` [compound 77], with 64%.
For the molecule `COc1cccc(CNc2cc(-c3noc(-c4cccc(C(=O)NS(=O)(=O)c5ccccc5)c4)n3)ccc2N(C)CCC(C)C)c1` [compound 98], under setting [1], the inhibition at 1 µM was found to be 100%.
The same measure, in the same setting: the result for `CC(C)CCN(C)c1ccc(-c2noc(-c3cccc(C(=O)NS(=O)(=O)c4ccccc4)c3)n2)cc1NC1C=CCCC1` (stereo not shown) [compound 59] reads 100%.
`Cc1ccccc1S(=O)(=O)NC(=O)c1cccc(-c2nc(-c3ccc(-c4csc(-c5ccccc5)n4)cc3)no2)c1` [Compound 141-III]: the inhibition at 1 µM under setting [3] was 100%.
With `O=C(O)c1ccc(C(=O)Nc2ccc(C#Cc3cccc(C(F)(F)F)c3)cc2)c(C(=O)O)c1` [compound 13], the inhibition at 1 µM under setting [2] is 51%.
For the molecule `CCCCS(=O)(=O)NC(=O)C1CCc2ccccc2[C@@H]1NC(=O)c1ccc2nc(-c3cc(C(F)(F)F)cc(C(F)(F)F)c3)ccc2c1` (stereo partly shown) [compound 57], the inhibition at 1 µM under setting [4] stood at 59%.
With `Nc1cccc(S(=O)(=O)Nc2ccc(-c3csc(-c4ccccc4)n3)cc2)c1` [compound 91], under setting [2], the inhibition at 1 µM came out at 65%.
As for `CCCCCC(=O)NS(=O)(=O)c1ccccc1NC(=O)c1ccc(Nc2ccc(C(F)(F)F)cc2)c(NC(=O)OCc2ccccc2)c1` [compound 35], the inhibition at 1 µM under setting [1] worked out at 91%.
As for `Cc1ccccc1S(=O)(=O)NC(=O)CC(NC(=O)c1ccc(N(C)CCC(C)C)c(NCc2ccccc2O)c1)C1CCCCC1` (stereo not shown) [compound 122], the inhibition at 1 µM under setting [1] is 67%.
On to `CCCCCC(=O)NS(=O)(=O)c1ccccc1NC(=O)c1ccc2nc(-c3cccc(C(F)(F)F)c3F)ccc2c1` [compound 110], for which, under setting [4], the inhibition at 1 µM was found to be 50%.
For `O=S(=O)(Nc1ccc(-c2csc(-c3ccccc3)n2)cc1)c1ccccc1NO` [compound 78], the inhibition at 1 µM under setting [2] came out at 55%.
For the molecule `CC(C)CCN(C)c1ccc(C(=O)NC(CC(=O)NS(=O)(=O)c2cn(C)cn2)C2CCCCC2)cc1NCc1ccccc1` (stereo not shown) [Compound 147-IV], the inhibition at 1 µM under setting [1] amounted to 68%.
Regarding `CN(c1ccc(C(=O)NC(CC(=O)NS(=O)(=O)c2ccccc2)C2CCCCC2)cc1NCCOCc1ccccc1)C1CC1` (stereo not shown) [Compound 158-IV], the inhibition at 1 µM under setting [1] is 65%.
In the case of `CCCCS(=O)(=O)NC(=O)CC(C)(NC(=O)c1ccc2nc(-c3cc(C(F)(F)F)cc(C(F)(F)F)c3)ccc2c1)c1ccccc1` (stereo not shown) [compound 56], the inhibition at 1 µM under setting [4] turned out to be 47%.
Consider `O=C1c2cccc3cccc(c23)C(=O)N1c1cccc(C#Cc2cccc(C(F)(F)F)c2)c1` [compound 70], for which, under setting [2], the inhibition at 1 µM amounted to 62%.
For `Cc1ccccc1S(=O)(=O)NC(=O)c1cccc(-c2nc(-c3ccc(N(C)CCC(C)C)c(NC(C)c4ccccc4)c3)no2)c1` (stereo not shown) [compound 107], the inhibition at 1 µM under setting [1] was 100%.
On the same count and under the same terms, the result for `CCCCCC(=O)NS(=O)(=O)c1ccccc1NC(=O)c1ccc(Nc2ccc(C(F)(F)F)cc2)c(NC(=O)c2cccc(C(F)(F)F)c2)c1` [compound 27] reads 91%.
Take `CC(C)CCN(C)c1ccc(C(=O)N[C@H]2CCCC[C@H]2C(=O)NS(=O)(=O)c2ccccc2)cc1NCc1ccccc1` [Compound 144-IV]: the inhibition at 1 µM under setting [1] was 94%.
With `CC(C)CCN(C)c1ccc(-c2noc(-c3cccc(C(=O)NS(=O)(=O)c4cn(C)cn4)c3)n2)cc1N(C)Cc1ccc(OCCO)cc1` [Compound 142-IV], the inhibition at 1 µM under setting [1] amounted to 93%.
Same read-out and setting: then `CCCCCC(=O)NS(=O)(=O)c1ccccc1NC(=O)c1ccc(NCCC(C)C)c(NC(=O)c2cc(C(F)(F)F)cc(C(F)(F)F)c2)c1` [compound 20], with 85%.
`O=C1c2ccccc2C(=O)N1c1cccc(C#Cc2cccc(C(F)(F)F)c2)c1` [compound 18]: the inhibition at 1 µM under setting [2] amounted to 60%.
As for `Cc1ccccc1S(=O)(=O)NC(=O)CC(NC(=O)c1ccc(N(C)CCC(C)C)c(NCc2ccccc2[N+](=O)[O-])c1)C1CCCCC1` (stereo not shown) [compound 124], the inhibition at 1 µM under setting [1] is 64%.
Consider `CC(C)c1ccc(S(=O)(=O)NC(=O)CC(NC(=O)c2ccc3nc(-c4cc(C(F)(F)F)cc(C(F)(F)F)c4)ccc3c2)c2ccccc2)cc1` (stereo not shown) [compound 49], for which, under setting [4], the inhibition at 1 µM was 62%.
`CC(C)CCN(C)c1ccc(-c2noc(-c3cccc(C(=O)NS(=O)(=O)c4cccc(C(=O)O)c4)c3)n2)cc1NCc1ccc(OCCO)cc1` [Compound 134-IV]: the inhibition at 1 µM under setting [1] amounted to 89%.
Turning to `CCCCS(=O)(=O)NC(=O)C1CCCCCC[C@@H]1NC(=O)c1ccc2nc(-c3cc(C(F)(F)F)cc(C(F)(F)F)c3)ccc2c1` (stereo partly shown) [compound 55], the inhibition at 1 µM under setting [4] turned out to be 70%.
With `CC(C)CCn1c(-c2ccccc2)nc2cc(-c3nc(-c4cccc(C(=O)NS(=O)(=O)c5ccccc5)c4)no3)ccc21` [Compound 9-II], under setting [3], the inhibition at 1 µM is 72%.
With `CCCCCC(=O)NS(=O)(=O)c1ccccc1NC(=O)c1ccc2nc(-c3cc(C(F)(F)F)ccc3F)ccc2c1` [compound 107], under setting [4], the inhibition at 1 µM turned out to be 90%.
With `CCCCCC(=O)NS(=O)(=O)c1ccccc1NC(=O)c1ccc(Nc2ccccc2)c(NC(=O)c2ccccc2)c1` [compound 23], under setting [1], the inhibition at 1 µM was 74%.
With `CC(C)CCN(C)c1ccc(-c2noc(-c3cccc(C(=O)NS(=O)(=O)c4ccccc4)c3)n2)cc1NC(C)c1ccccc1` (stereo not shown) [compound 106], under setting [1], the inhibition at 1 µM was 100%.
For `O=C(O)c1ccc(-c2ccc3nc(-c4cc(C(F)(F)F)cc(C(F)(F)F)c4)ccc3c2)o1` [compound 82], the inhibition at 1 µM under setting [4] was 34%.
On to `O=C(Nc1cccc(C(=O)NS(=O)(=O)c2ccccc2)c1)c1ccc(NCCN2CCCC2)c([N+](=O)[O-])c1` [compound 67], for which, under setting [1], the inhibition at 1 µM stood at 58%.
For the molecule `CCCCCC(=O)NS(=O)(=O)c1ccccc1NC(=O)c1ccc(Nc2ccccc2)c(NC(=O)c2cc(C(F)(F)F)cc(C(F)(F)F)c2)c1` [compound 26], the inhibition at 1 µM under setting [1] turned out to be 78%.
For the molecule `O=C(NS(=O)(=O)c1ccccc1)c1cccc(-c2noc(-c3ccc(NC4CC4)c([N+](=O)[O-])c3)n2)c1` [compound 52], the inhibition at 1 µM under setting [1] amounted to 59%.
Consider `O=C(Nc1ccc(C#Cc2cccc(C(F)(F)F)c2)cc1)NC(Cc1ccccc1)C(=O)O` (stereo not shown) [compound 66], for which the inhibition at 1 µM under setting [2] worked out at 73%.
With `CCCCCC(=O)NS(=O)(=O)c1ccccc1NC(=O)c1ccc2nc(-c3cccc(C(F)(F)F)c3)n(-c3ccccc3)c2c1` [compound 4], the inhibition at 1 µM (Table 3-II, Mode 2 benzimidazole compounds (numbers = x-II)) came to 54%.
In the case of `O=C(Nc1ccc(-c2csc(-c3ccccc3)n2)cc1)N[C@H](Cc1ccccc1)C(=O)O` [compound 103], the inhibition at 1 µM under setting [2] is 63%.
Regarding `COC(=O)c1ccc(S(=O)(=O)NC(=O)c2cccc(-c3nc(-c4ccc(-c5csc(-c6ccccc6)n5)cc4)no3)c2)cc1` [Compound 140-III], under setting [3], the inhibition at 1 µM is 92%.
As to `Cc1ccccc1S(=O)(=O)NC(=O)CC(NC(=O)c1ccc(N(C)CCC(C)C)c(NCC2CCCCC2)c1)C1CCCCC1` (stereo not shown) [compound 83], the inhibition at 1 µM under setting [1] turned out to be 92%.
For the molecule `CC(C)CCN(C)c1ccc(-c2noc(-c3cccc(C(=O)NS(=O)(=O)c4ccccc4)c3)n2)cc1NCc1cccc(C(=O)O)c1` [compound 100], the inhibition at 1 µM under setting [1] came to 72%.
Consider `CCN(CC)c1ccc(-c2csc(-c3ccc(-c4csc(-c5cccc(S(=O)(=O)NC(=O)c6ccncc6)c5)n4)cc3)n2)cc1` [Compound 147-III], for which the inhibition at 1 µM under setting [3] was determined as 65%.
